Read-outs that look alike come from different tables or passages of the source.
Key:
Type in all cases: biochemical
[1] = molecular target: T1, human MAP4K4 kinase domain (Homo sapiens, UniProt O95819); experiment: MAP4K4 kinase activity, CisBio HTRF Transcreener ADP assay
T1 construct: 0.5 nM human MAP4K4 kinase domain (Invitrogen); purchased Invitrogen
Text: Compounds of the present invention were screened for their inhibitory activity against MAP4K4, versus selected off-target hits found with early members of this chemical series. MAP4K4 kinase activity was monitored using the CisBio HTRF Transcreener ADP assay, a competitive immunoassay with a reproducible Z′>0.6. In the detection step, endogenous ADP and d2-labeled ADP compete for binding an anti-ADP monoclonal antibody labelled with Eu^3+ cryptate. A ratiometric fluorescent read-out is used at 665 and 620 nm. Reactions were performed in the presence of 1% DMSO with ATP added at Km (10 μM), 0.5 nM human MAP4K4 kinase domain (Invitrogen), 1 μM biotin-myelin basic protein as substrate (Invitrogen), and extension of reaction time to 2 h. Assays were run in Greiner low volume plates with a final reaction volume of 10 μl. The MAP4K4 inhibition data are provided in Table 41 below for selected compounds of the present invention. The data has been categorised based on the IC50 value of the compound as “A”, “B” or “C”. IC50: A≤100 nM; 100 nM<B≤1 μM; 1 μM<C; nd=not determined.

MINK1/MAP4K6 = MINK1/MAP4K6 (Homo sapiens, UniProt Q8N4C8); experiment: Kinase selectivity panel, MINK1/MAP4K6; conditions: read-out: pIC50 MINK1/MAP4K6 (converted)
Text: (§1) The data in Table 42 also provides the fold selectivity of the two compounds in favour of MAP4K4 over the tested kinase. The fold selectivity is indicated in parenthesis.

TNIK/MAP4K7 = TNIK/MAP4K7 (Homo sapiens, UniProt Q9UKE5); experiment: Kinase selectivity panel, TNIK/MAP4K7; conditions: read-out: pIC50 TNIK/MAP4K7 (converted)
Text: as §1

GCK/MAP4K2 = molecular target: T2, GCK/MAP4K2 (Homo sapiens, UniProt Q12851); experiment: Kinase selectivity panel, GCK/MAP4K2; conditions: for fold selectivity MAP4K4 over GCK/MAP4K2: in favour of MAP4K4; for IC50: read-out: pIC50 GCK/MAP4K2 (converted)
T2 sequence (Q12851 1-820): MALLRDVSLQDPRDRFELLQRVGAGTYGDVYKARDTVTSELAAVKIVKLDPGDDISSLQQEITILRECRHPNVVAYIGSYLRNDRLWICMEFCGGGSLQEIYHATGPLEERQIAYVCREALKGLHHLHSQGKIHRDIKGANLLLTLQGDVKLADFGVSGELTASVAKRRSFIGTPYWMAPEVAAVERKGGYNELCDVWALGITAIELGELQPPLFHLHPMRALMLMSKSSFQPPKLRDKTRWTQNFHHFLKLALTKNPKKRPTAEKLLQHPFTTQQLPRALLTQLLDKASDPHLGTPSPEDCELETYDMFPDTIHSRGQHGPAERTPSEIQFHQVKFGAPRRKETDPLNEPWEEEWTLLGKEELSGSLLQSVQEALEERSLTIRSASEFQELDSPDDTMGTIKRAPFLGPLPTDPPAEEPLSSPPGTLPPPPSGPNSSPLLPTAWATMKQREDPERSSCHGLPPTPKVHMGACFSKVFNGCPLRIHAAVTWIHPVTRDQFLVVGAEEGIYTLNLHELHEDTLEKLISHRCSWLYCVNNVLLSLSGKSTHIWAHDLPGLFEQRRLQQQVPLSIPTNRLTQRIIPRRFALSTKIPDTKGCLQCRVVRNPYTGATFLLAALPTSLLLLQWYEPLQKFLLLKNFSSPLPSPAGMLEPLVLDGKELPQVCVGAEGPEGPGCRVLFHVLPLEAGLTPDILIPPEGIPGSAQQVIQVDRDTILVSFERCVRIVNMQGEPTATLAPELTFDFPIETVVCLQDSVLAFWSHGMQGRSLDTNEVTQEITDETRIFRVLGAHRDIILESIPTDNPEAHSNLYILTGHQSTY
Text: as §1

KHS/MAP4K5 = KHS/MAP4K5 (Homo sapiens, UniProt Q9Y4K4); experiment: Kinase selectivity panel, KHS/MAP4K5; conditions: for fold selectivity MAP4K4 over KHS/MAP4K5: in favour of MAP4K4; for IC50: read-out: pIC50 KHS/MAP4K5 (converted)
Text: as §1

ABL1 = ABL1 (Homo sapiens, UniProt P00519); experiment: Kinase selectivity panel, ABL1; conditions: for fold selectivity MAP4K4 over ABL1: in favour of MAP4K4; for IC50: read-out: pIC50 ABL1 (converted)
Text: as §1

Aurora B = Aurora B (Homo sapiens, UniProt Q96GD4); experiment: Kinase selectivity panel, Aurora B; conditions: for fold selectivity MAP4K4 over Aurora B: in favour of MAP4K4
Text: as §1

MLK1/MAP3K9 = MLK1/MAP3K9 (Homo sapiens, UniProt P80192); experiment: Kinase selectivity panel, MLK1/MAP3K9; conditions: for fold selectivity MAP4K4 over MLK1/MAP3K9: in favour of MAP4K4; for IC50: read-out: pIC50 MLK1/MAP3K9 (converted)
Text: as §1

MLK3/MAP3K11 = MLK3/MAP3K11 (Homo sapiens, UniProt Q16584); experiment: Kinase selectivity panel, MLK3/MAP3K11; conditions: for fold selectivity MAP4K4 over MLK3/MAP3K11: in favour of MAP4K4; for IC50: read-out: pIC50 MLK3/MAP3K11 (converted)
Text: as §1

NUAK1 = molecular target: T3, NUAK1 (Homo sapiens, UniProt O60285); experiment: Kinase selectivity panel, NUAK1; conditions: for fold selectivity MAP4K4 over NUAK1: in favour of MAP4K4; for IC50: read-out: pIC50 NUAK1 (converted)
T3 sequence (O60285 1-661): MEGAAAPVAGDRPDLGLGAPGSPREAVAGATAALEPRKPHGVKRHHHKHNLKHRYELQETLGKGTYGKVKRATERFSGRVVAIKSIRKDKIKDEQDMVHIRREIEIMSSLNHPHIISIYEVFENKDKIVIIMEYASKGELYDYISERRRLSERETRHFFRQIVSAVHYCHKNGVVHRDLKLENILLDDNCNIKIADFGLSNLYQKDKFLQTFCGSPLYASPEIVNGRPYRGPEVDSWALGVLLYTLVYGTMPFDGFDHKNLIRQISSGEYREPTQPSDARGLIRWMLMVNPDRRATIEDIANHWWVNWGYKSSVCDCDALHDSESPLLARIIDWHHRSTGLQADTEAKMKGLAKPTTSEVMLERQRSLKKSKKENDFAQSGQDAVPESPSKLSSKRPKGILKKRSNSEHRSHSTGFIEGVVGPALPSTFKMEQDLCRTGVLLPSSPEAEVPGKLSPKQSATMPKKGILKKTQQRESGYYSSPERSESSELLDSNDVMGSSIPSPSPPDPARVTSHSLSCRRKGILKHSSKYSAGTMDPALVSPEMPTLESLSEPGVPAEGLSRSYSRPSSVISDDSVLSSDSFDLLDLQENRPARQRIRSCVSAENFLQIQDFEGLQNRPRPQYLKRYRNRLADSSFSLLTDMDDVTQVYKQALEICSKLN
Text: as §1

GLK/MAP4K3 = molecular target: T4, GLK/MAP4K3 (Homo sapiens, UniProt Q8IVH8); experiment: Kinase selectivity panel, GLK/MAP4K3; conditions: for fold selectivity MAP4K4 over GLK/MAP4K3: in favour of MAP4K4; for IC50: read-out: pIC50 GLK/MAP4K3 (converted)
T4 sequence (Q8IVH8 1-894): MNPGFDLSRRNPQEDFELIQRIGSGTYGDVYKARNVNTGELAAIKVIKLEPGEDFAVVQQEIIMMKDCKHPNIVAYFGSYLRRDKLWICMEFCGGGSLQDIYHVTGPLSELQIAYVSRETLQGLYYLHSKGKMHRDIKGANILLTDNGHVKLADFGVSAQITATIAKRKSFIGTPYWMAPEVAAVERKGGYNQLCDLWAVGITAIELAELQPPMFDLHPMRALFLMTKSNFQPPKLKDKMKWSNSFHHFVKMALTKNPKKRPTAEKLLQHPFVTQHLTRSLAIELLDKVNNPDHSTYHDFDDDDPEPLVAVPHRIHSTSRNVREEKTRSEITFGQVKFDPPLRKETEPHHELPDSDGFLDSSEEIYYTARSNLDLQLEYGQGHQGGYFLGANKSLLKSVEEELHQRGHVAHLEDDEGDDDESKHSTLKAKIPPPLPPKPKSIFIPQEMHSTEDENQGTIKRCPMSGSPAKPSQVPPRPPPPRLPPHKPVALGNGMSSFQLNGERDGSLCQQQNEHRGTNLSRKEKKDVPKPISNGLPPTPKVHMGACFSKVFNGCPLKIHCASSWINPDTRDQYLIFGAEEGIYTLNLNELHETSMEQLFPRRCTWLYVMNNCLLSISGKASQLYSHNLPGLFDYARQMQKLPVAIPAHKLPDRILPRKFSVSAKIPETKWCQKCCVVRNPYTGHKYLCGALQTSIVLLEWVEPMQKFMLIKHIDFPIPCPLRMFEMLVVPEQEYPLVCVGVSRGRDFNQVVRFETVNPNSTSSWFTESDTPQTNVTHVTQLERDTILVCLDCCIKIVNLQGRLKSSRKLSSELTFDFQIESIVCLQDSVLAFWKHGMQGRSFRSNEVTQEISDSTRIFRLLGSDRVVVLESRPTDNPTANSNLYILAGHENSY
Text: as §1

[2] = IC50 category, ATP at Km (10 μM), 0.5 nM kinase domain, 2 h, read-out: MAP4K4
[3] = read-out: pIC50 MAP4K4 (converted)

Sequence of MLK1/MAP3K9 (P80192 whole entry): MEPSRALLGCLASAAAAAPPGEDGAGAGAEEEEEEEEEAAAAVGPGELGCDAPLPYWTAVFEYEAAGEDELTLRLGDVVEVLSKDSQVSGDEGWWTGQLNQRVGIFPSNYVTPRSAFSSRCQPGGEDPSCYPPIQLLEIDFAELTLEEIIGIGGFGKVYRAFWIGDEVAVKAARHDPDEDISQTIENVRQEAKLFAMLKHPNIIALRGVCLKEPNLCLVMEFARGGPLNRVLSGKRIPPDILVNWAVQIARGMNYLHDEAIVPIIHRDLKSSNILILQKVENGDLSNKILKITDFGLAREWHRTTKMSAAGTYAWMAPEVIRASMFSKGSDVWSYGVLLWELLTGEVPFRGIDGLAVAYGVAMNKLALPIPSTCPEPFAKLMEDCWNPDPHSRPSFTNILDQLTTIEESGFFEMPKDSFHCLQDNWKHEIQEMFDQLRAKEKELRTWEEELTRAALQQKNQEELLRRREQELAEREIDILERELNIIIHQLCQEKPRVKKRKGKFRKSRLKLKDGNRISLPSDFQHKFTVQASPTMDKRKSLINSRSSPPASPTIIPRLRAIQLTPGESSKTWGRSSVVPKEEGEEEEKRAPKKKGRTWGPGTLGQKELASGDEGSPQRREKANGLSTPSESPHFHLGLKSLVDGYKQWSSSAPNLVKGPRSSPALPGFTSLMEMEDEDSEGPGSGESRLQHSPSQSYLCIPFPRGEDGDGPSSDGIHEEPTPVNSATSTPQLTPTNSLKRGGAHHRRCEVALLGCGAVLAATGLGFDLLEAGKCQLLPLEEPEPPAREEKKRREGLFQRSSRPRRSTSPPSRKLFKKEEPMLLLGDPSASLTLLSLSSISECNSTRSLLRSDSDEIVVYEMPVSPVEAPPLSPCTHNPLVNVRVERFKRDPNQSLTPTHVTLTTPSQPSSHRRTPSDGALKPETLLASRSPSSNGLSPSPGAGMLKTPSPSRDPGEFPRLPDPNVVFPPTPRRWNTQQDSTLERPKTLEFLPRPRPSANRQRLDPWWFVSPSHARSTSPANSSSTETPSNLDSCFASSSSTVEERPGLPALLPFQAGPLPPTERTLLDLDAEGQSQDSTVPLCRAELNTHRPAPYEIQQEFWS
Sequence of ABL1 (P00519 whole entry, species assumed): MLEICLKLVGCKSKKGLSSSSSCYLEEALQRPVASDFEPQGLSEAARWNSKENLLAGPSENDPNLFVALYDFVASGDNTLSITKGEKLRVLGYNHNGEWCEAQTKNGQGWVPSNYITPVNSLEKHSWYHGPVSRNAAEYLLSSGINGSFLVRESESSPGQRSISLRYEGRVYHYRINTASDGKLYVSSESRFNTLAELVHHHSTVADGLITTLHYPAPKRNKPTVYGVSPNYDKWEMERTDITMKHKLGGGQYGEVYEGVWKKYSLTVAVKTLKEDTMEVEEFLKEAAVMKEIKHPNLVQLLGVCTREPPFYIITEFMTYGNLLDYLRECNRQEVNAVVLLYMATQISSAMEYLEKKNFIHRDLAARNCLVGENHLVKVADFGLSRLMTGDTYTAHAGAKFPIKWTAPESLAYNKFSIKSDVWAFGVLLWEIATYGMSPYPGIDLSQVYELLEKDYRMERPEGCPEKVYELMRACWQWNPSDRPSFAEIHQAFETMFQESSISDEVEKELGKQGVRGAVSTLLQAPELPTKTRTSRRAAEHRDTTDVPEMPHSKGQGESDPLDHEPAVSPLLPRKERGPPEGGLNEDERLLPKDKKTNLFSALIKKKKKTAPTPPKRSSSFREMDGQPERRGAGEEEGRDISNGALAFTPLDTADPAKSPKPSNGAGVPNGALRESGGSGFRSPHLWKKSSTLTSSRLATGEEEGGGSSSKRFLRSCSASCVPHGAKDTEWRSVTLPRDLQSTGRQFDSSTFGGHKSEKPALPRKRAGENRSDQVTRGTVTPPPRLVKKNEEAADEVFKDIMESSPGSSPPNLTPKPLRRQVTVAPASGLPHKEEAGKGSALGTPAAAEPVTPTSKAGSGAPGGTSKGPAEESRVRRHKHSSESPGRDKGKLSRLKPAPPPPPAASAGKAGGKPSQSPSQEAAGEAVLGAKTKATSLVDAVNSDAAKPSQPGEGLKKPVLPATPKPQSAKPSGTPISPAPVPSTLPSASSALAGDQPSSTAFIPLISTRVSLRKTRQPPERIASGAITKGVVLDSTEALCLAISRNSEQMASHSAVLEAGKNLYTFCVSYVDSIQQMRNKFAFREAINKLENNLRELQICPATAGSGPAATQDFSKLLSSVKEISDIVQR
Sequence of TNIK/MAP4K7 (Q9UKE5 whole entry): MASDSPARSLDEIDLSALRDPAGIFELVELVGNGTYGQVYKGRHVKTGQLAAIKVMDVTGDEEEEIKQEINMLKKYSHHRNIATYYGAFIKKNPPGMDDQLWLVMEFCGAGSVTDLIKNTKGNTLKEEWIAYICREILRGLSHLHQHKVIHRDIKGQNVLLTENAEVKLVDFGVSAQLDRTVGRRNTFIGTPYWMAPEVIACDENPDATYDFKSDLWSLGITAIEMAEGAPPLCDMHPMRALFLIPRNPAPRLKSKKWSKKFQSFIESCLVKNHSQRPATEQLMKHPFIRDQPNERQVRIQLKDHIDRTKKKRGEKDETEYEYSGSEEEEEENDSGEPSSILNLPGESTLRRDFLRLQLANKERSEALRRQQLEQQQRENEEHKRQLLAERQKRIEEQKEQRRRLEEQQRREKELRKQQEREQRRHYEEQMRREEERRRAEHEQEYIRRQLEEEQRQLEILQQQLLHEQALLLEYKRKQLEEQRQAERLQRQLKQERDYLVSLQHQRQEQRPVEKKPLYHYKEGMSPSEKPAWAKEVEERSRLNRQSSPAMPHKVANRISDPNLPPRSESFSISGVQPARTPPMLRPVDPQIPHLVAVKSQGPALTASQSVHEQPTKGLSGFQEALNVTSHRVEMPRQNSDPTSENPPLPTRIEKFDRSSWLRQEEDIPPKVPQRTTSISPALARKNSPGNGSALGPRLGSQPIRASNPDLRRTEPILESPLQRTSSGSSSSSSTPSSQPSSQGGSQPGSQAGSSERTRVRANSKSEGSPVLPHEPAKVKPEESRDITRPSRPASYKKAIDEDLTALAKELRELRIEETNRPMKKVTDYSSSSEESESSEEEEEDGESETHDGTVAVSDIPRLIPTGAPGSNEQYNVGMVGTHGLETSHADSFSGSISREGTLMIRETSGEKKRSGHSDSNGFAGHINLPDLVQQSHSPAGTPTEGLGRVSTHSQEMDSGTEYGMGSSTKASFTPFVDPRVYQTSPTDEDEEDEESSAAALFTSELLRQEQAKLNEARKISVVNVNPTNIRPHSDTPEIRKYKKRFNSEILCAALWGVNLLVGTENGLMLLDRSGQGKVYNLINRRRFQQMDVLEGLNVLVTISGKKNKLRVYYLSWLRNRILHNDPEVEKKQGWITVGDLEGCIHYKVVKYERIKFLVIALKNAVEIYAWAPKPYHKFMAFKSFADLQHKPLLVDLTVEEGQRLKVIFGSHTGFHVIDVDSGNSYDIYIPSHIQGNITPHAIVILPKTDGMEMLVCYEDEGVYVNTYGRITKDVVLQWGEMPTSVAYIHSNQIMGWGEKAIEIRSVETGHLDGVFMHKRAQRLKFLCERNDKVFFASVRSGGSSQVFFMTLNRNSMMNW
T1 sequence (O95819 25-289 limits assumed): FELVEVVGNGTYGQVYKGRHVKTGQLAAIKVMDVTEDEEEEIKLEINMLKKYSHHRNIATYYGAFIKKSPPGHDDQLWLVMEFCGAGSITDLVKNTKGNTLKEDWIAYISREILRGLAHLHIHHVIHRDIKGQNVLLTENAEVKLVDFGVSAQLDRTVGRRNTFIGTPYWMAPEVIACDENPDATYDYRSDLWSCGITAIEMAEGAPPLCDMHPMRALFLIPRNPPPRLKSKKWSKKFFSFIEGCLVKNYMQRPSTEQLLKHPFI
Sequence of KHS/MAP4K5 (Q9Y4K4 whole entry): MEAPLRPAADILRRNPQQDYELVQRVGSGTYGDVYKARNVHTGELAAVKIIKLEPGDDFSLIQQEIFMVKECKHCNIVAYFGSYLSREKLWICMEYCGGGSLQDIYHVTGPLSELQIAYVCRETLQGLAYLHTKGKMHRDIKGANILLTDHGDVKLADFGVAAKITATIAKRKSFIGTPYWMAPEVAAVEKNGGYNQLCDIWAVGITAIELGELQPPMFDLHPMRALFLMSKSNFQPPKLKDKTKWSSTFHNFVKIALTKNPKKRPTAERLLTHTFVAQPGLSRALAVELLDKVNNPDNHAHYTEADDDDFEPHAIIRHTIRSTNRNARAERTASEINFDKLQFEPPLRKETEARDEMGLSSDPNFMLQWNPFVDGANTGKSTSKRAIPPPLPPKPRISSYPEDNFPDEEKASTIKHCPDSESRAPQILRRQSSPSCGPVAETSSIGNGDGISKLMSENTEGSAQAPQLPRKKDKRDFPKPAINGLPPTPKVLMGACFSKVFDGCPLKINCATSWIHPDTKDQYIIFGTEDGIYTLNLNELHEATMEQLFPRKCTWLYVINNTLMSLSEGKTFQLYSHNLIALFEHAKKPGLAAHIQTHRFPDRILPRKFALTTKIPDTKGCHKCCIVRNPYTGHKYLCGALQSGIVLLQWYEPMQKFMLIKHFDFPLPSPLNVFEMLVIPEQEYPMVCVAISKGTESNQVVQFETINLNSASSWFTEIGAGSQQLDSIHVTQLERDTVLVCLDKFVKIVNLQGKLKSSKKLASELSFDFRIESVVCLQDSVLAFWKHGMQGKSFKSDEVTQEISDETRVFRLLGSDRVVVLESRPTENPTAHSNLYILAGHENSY
Sequence of Aurora B (Q96GD4 whole entry): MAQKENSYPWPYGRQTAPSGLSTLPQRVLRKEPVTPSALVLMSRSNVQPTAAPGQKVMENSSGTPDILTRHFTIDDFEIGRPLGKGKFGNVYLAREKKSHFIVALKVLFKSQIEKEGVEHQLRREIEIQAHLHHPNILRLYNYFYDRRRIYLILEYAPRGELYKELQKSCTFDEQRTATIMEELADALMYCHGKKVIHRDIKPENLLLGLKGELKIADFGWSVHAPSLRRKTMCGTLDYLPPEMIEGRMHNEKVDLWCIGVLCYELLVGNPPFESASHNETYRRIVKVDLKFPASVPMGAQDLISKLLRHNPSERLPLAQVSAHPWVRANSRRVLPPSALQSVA

| SMILES | IC50 [1, 2] | IC50 [1, 3] | IC50 (MINK1/MAP4K6) | IC50 (TNIK/MAP4K7) | fold selectivity MAP4K4 over GCK/MAP4K2 (GCK/MAP4K2) | IC50 (GCK/MAP4K2) | fold selectivity MAP4K4 over KHS/MAP4K5 (KHS/MAP4K5) | IC50 (KHS/MAP4K5) | fold selectivity MAP4K4 over ABL1 (ABL1) | IC50 (ABL1) | fold selectivity MAP4K4 over Aurora B (Aurora B) | IC50 (Aurora B; read-out: pIC50 Aurora B (converted)) | fold selectivity MAP4K4 over MLK1/MAP3K9 (MLK1/MAP3K9) | IC50 (MLK1/MAP3K9) | fold selectivity MAP4K4 over MLK3/MAP3K11 (MLK3/MAP3K11) | IC50 (MLK3/MAP3K11) | fold selectivity MAP4K4 over NUAK1 (NUAK1) | IC50 (NUAK1) | fold selectivity MAP4K4 over GLK/MAP4K3 (GLK/MAP4K3) | IC50 (GLK/MAP4K3) |
| --- | --- | --- | --- | --- | --- | --- | --- | --- | --- | --- | --- | --- | --- | --- | --- | --- | --- | --- | --- | --- |
| COCCOc1ccc(-c2cn(-c3ccncc3)c3nc[nH]c(=O)c23)cc1 [Ex-28] | ≤ 100 nM | 12.6 nM | 31.6 nM | 50.1 nM | (79) fold | 1000 nM | (63) fold | 794 nM | (501) fold | 6310 nM | (501) fold | 6310 nM | (398) fold | 5010 nM | (79) fold | 1000 nM | (251) fold | 3160 nM |  |  |
| COCCOc1ccc(-c2cn(-c3cccnc3)c3nc[nH]c(=O)c23)cc1 [Ex-67] | ≤ 100 nM | 25.1 nM |  | 200 nM | (79) fold | 2000 nM | (63) fold | 1580 nM | (>1000) fold | 31600 nM |  |  |  |  | (63) fold | 1580 nM | (50) fold | 1260 nM | (1000) fold | 25100 nM |
| COCCOc1ccc(-c2cn(-c3cccc(F)c3)c3nc[nH]c(=O)c23)cn1 [Ex-29] | ≤ 100 nM | 20 nM | 12.6 nM | 31.6 nM | (50) fold | 1000 nM | (50) fold | 1000 nM |  |  | (>1000) fold |  | (20) fold | 398 nM | (25) fold | 501 nM | (16) fold | 316 nM | (>1000) fold |  |
| O=c1[nH]cnc2c1c(-c1cnn(CCO)c1)cn2-c1ccccc1 [Ex-27] | ≤ 100 nM | 15.8 nM | 10 nM | 20 nM | (31) fold | 501 nM |  |  |  |  |  |  | (5) fold | 79.4 nM | (5) fold | 79.4 nM | (13) fold | 200 nM |  |  |
| O=c1[nH]cnc2c1c(-c1cnn(C3COC3)c1)cn2-c1ccccc1 [Ex-26] | ≤ 100 nM | 31.6 nM | 63.1 nM | 316 nM | (16) fold | 501 nM |  |  |  |  |  |  | (8) fold | 126 nM | (1) fold | 31.6 nM | (3) fold | 100 nM |  |  |
| O=c1[nH]cnc2c1c(-c1ccc(OCC(O)CN3CCOCC3)cc1)cn2-c1cccnc1 (stereo not shown) [Ex-54] | ≤ 100 nM | 31.6 nM | 31.6 nM | 50.1 nM | (5) fold | 158 nM | (6) fold | 200 nM | (126) fold | 3980 nM |  |  | (100) fold | 3160 nM | (13) fold | 398 nM | (4) fold | 126 nM | (50) fold | 1580 nM |

Source: patent US12247045B2, “MAP4K4 inhibitors” (Imperial College Innovations Limited, priority 2018, dated 2025)
